Reference: patent US9447136B2, “Semisynthetic derivatives of Nystatin A1” (BLIRT S.A., priority 2012, dated 2016)
Values after ≈ are worked out from the molar mass of the structure shown.

Legend:
[1] = test system: Aspergillus niger LOCK E201; experiment: Antifungal activity in vitro, serial dilution in RPMI 1640; format: cell-based; settings: Table 2B
How it was run: (§1)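 In buffered RPMI 1640 at pH 7.0, fungi were exposed to serially diluted compound (M27-A2 standard) and turbidity was recorded at 531 nm. Values relative to control: IC50 at 50%, MIC as lowest concentration at ≤20%.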

[2] = test system: Candida albicans ATCC 10231; experiment: as above; format: cell-based; settings: for Antifungal activity Candida albicans ATCC 10231 IC50 / Antifungal activity Candida albicans ATCC 10231 MIC: Table 2A, RPMI 1640, pH 7.0; for Antifungal activity Candida albicans ATCC 10231 IC50: A531 50% of control; for Antifungal activity Candida albicans ATCC 10231 MIC: A531 at most 20% of control; for MIC Candida albicans ATCC 10231: Table 2B
How it was run: as §1

[3] = test system: Candida arborea KKP 319; experiment: as above; format: cell-based; settings: Table 2B
How it was run: as §1

[4] = test system: Candida dubliniensis CBS 7987; experiment: as above; format: cell-based; settings: Table 2B
How it was run: as §1

[5] = test system: Candida glabrata DSM 11226; experiment: as above; format: cell-based; settings: Table 2A; RPMI 1640, pH 7.0
How it was run: as §1

[6] = test system: Candida krusei DSM 6128; experiment: as above; format: cell-based; settings: Table 2A; RPMI 1640, pH 7.0
How it was run: as §1

[7] = test system: Candida lipolytica KKP 322; experiment: as above; format: cell-based; settings: Table 2B
How it was run: as §1

[8] = test system: Candida parapsilosis DSM 5784; experiment: as above; format: cell-based; settings: Table 2B
How it was run: as §1

[9] = test system: Candida pseudotropicalis KKP 324; experiment: as above; format: cell-based; settings: Table 2B
How it was run: as §1

[10] = test system: Candida quilliermondii DSM 11947; experiment: as above; format: cell-based; settings: Table 2B
How it was run: as §1

[11] = test system: Candida stellatoidea CBS 1905; experiment: as above; format: cell-based; settings: Table 2B
How it was run: as §1

[12] = test system: Candida tropicalis KKP 334; experiment: as above; format: cell-based; settings: Table 2A; RPMI 1640, pH 7.0
How it was run: as §1

[13] = test system: Saccharomyces cerevisiae ATCC 9763; experiment: as above; format: cell-based; settings: for Antifungal activity Saccharomyces cerevisiae ATCC 9763 MIC: Table 2A, RPMI 1640, pH 7.0, A531 at most 20% of control; for MIC Saccharomyces cerevisiae ATCC 9763: Table 2B
How it was run: as §1

[14] = test system: Trichoderma viride LOCK E159; experiment: as above; format: cell-based; settings: Table 2B
How it was run: as §1

[15] = test system: Human erythrocytes; experiment: Hemotoxicity (hemolytic activity)
How it was run: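 Human erythrocytes in saline (2×10^7/ml) were incubated with serially diluted compound at 37 °C for 30 min, then centrifuged. Released hemoglobin was read as A540 against 0.1% Triton X-100 as full hemolysis. EH50 is the interpolated concentration giving 50% of the control A540.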

[16] = test system: Candida albicans 5674; experiment: Antifungal activity towards resistant (MDR) strains; format: cell-based; settings: C. albicans 5674 overexpressing CDR1 and CDR2
Procedure: (§2) The determination of antifungal activity was performed by the serial dilutions method in buffered RPMI 1640 medium, in a 96-wells microplates, according to the standard procedure (National Committee for Clinical Laboratory Standards. Reference method for broth dilution antifungal susceptibility testing of yeast, approved standard, 2nd ed. M27-A2 vol. 22 Wayne, Pa., 2002). The optical density of cells suspension was measured using a microplates reader (Victor^3, Perkin-Elmer) at the wavelength λ=660 nm (A660). On the basis of received results the diagrams on interrelation between the A660 value and the concentration of tested compound were made. From these graphs MIC values were read, that are the concentrations of tested compounds, in the presence at which A660 value is at most 20% of A660 value measured in control sample.

[17] = test system: Candida albicans B3; experiment: as above; format: cell-based; settings: fluconazole sensitive, parent strain for B4
Procedure: as §2

[18] = test system: Candida albicans B4; experiment: as above; format: cell-based; settings: fluconazole-resistant due to the overexpression of CaMDR1
Procedure: as §2

[19] = test system: Candida albicans F2; experiment: as above; format: cell-based; settings: fluconazole sensitive, parent strain for F5
Procedure: as §2

[20] = test system: Candida albicans F5; experiment: as above; format: cell-based; settings: fluconazole-resistant due to the overexpression of CaMDR1 and ERG11
Procedure: as §2

[21] = test system: Candida albicans Gu4; experiment: as above; format: cell-based; settings: fluconazole sensitive, parent strain for Gu5
Procedure: as §2

[22] = test system: Candida albicans Gu5; experiment: as above; format: cell-based; settings: fluconazole-resistant due to the overexpression of CDR1 and CDR2
Procedure: as §2

[23] = test system: Candida albicans STY19; experiment: as above; format: cell-based; settings: 5674 mutant derivative, deletion of CDR1
Procedure: as §2

[24] = test system: Candida albicans STY31; experiment: as above; format: cell-based; settings: 5674 mutant derivative, deletion of CDR1 and CDR2
Procedure: as §2

[25] = test system: Candida albicans STY7; experiment: as above; format: cell-based; settings: 5674 mutant derivative, deletion of CDR2
Procedure: as §2

[26] = test system: CCRF-CEM; experiment: Cytotoxic activity against mammalian cells in tissue culture (MTT); format: cell-based, human; settings: CCRF-CEM, 120 h, MTT
How it was run: (§3)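 Cells at 1.2×10^4/well were exposed to serial 2× DMSO dilutions for 120 h at 37 °C: CCRF-CEM in RPMI 1640 + 10% FBS, HepG2 in MEM + 10% FBS, LLC-PK1 in Medium 199 + 3% FBS. MTT was added for 4 h and A540 read. IC50 is the concentration halving A540 versus DMSO control.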

[27] = test system: HepG2; experiment: as above; format: cell-based, human; settings: HepG2, 120 h, MTT
How it was run: as §3

[28] = test system: LLC-PK1; experiment: as above; format: cell-based, pig; settings: LLC-PK1, 120 h, MTT
How it was run: as §3

N-[L-(N,N-dimethyl)phenylalanyl]nystatin A1 [Compound N45]
MIC Aspergillus niger LOCK E201 [1]: 8 µg/mL | Antifungal activity Candida albicans ATCC 10231 IC50 [2]: 2.83 µg/mL | Antifungal activity Candida albicans ATCC 10231 MIC [2]: 4 µg/mL | MIC Candida albicans ATCC 10231 [2]: 4 µg/mL | MIC Candida arborea KKP 319 [3]: 8 µg/mL | MIC Candida dubliniensis CBS 7987 [4]: 2 µg/mL | Antifungal activity Candida glabrata DSM 11226 MIC [5]: 4 µg/mL | Antifungal activity Candida krusei DSM 6128 MIC [6]: 8 µg/mL | MIC Candida lipolytica KKP 322 [7]: 8 µg/mL | MIC Candida parapsilosis DSM 5784 [8]: 4 µg/mL | MIC Candida pseudotropicalis KKP 324 [9]: 4 µg/mL | MIC Candida quilliermondii DSM 11947 [10]: 4 µg/mL | MIC Candida stellatoidea CBS 1905 [11]: 4 µg/mL | Antifungal activity Candida tropicalis KKP 334 MIC [12]: 4 µg/mL | Antifungal activity Saccharomyces cerevisiae ATCC 9763 MIC [13]: 2 µg/mL | MIC Saccharomyces cerevisiae ATCC 9763 [13]: 2 µg/mL | MIC Trichoderma viride LOCK E159 [14]: 16 µg/mL | % of hemolysis at the concentration 300 μg ml^−1 [15]: 7.11% | EH10 ([15]; human erythrocytes, concentration causing 10% of hemolysis): >300 µg/mL | MIC Candida albicans 5674 [16]: 8 µg/mL | MIC Candida albicans B3 [17]: 4 µg/mL | MIC Candida albicans B4 [18]: 4 µg/mL | MIC Candida albicans F2 [19]: 8 µg/mL | MIC Candida albicans F5 [20]: 8 µg/mL | MIC Candida albicans Gu4 [21]: 4 µg/mL | MIC Candida albicans Gu5 [22]: 4 µg/mL | MIC Candida albicans STY19 [23]: 4 µg/mL | MIC Candida albicans STY31 [24]: 8 µg/mL | MIC Candida albicans STY7 [25]: 8 µg/mL | Cytotoxicity IC50 CCRF-CEM [26]: >100 µg/mL | Cytotoxicity IC50 HepG2 [27]: >100 µg/mL | Cytotoxicity IC50 LLC-PK1 [28]: >100 µg/mL

CCN(CC)[C@@H](Cc1ccccc1)C(=O)NC1C(O)C(C)OC(O[C@H]2/C=C/C=C/C=C/C=C/CC/C=C/C=C/[C@H](C)[C@@H](O)[C@@H](C)[C@H](C)OC(=O)C[C@H](O)C[C@H](O)C[C@H](O)CC[C@@H](O)[C@H](O)CC3(O)C[C@H](O)[C@@H](C(=O)O)[C@H](C2)O3)C1O (stereo partly drawn) [Compound N46, N—[L-(N,N-diethyl)phenylalanyl]nystatin A1]
MIC Aspergillus niger LOCK E201 [1]: 32 µg/mL (≈ 28.3 µM) | Antifungal activity Candida albicans ATCC 10231 IC50 [2]: 2.83 µg/mL | Antifungal activity Candida albicans ATCC 10231 MIC [2]: 4 µg/mL | MIC Candida albicans ATCC 10231 [2]: 4 µg/mL (≈ 3.54 µM) | MIC Candida arborea KKP 319 [3]: 32 µg/mL (≈ 28.3 µM) | MIC Candida dubliniensis CBS 7987 [4]: 16 µg/mL (≈ 14.2 µM) | Antifungal activity Candida glabrata DSM 11226 MIC [5]: 8 µg/mL | Antifungal activity Candida krusei DSM 6128 MIC [6]: 8 µg/mL | MIC Candida lipolytica KKP 322 [7]: 16 µg/mL (≈ 14.2 µM) | MIC Candida parapsilosis DSM 5784 [8]: 32 µg/mL (≈ 28.3 µM) | MIC Candida pseudotropicalis KKP 324 [9]: 16 µg/mL (≈ 14.2 µM) | MIC Candida quilliermondii DSM 11947 [10]: 32 µg/mL (≈ 28.3 µM) | MIC Candida stellatoidea CBS 1905 [11]: 8 µg/mL (≈ 7.08 µM) | Antifungal activity Candida tropicalis KKP 334 MIC [12]: 4 µg/mL | Antifungal activity Saccharomyces cerevisiae ATCC 9763 MIC [13]: 4 µg/mL | MIC Saccharomyces cerevisiae ATCC 9763 [13]: 4 µg/mL (≈ 3.54 µM) | MIC Trichoderma viride LOCK E159 [14]: 16 µg/mL (≈ 14.2 µM) | % of hemolysis at the concentration 60 μg ml^−1 [15]: 0.37% | MIC Candida albicans 5674 [16]: 32 µg/mL (≈ 28.3 µM) | MIC Candida albicans B3 [17]: 8 µg/mL (≈ 7.08 µM) | MIC Candida albicans B4 [18]: 8 µg/mL (≈ 7.08 µM) | MIC Candida albicans F2 [19]: 16 µg/mL (≈ 14.2 µM) | MIC Candida albicans F5 [20]: 16 µg/mL (≈ 14.2 µM) | MIC Candida albicans Gu4 [21]: 8 µg/mL (≈ 7.08 µM) | MIC Candida albicans Gu5 [22]: 16 µg/mL (≈ 14.2 µM) | MIC Candida albicans STY19 [23]: 32 µg/mL (≈ 28.3 µM) | MIC Candida albicans STY31 [24]: 32 µg/mL (≈ 28.3 µM) | MIC Candida albicans STY7 [25]: 32 µg/mL (≈ 28.3 µM) | Cytotoxicity IC50 CCRF-CEM [26]: >100 µg/mL | Cytotoxicity IC50 HepG2 [27]: >100 µg/mL | Cytotoxicity IC50 LLC-PK1 [28]: >100 µg/mL
